For one data set, the system named is Coxsackievirus B4. The data set is described as follows: Antiviral activity against Coxsackievirus B4 infected in african green monkey Vero cells assessed as inhibition of virus-induced cytopathicity. It is filed as functional, organism-based. Conditions: for EC50: Enterovirus B.
The test system of data set [1] is Influenza A virus. Put plainly: Antiviral activity against influenza A virus H1N1 infected in MDCK cells assessed as inhibition of virus-induced cytopathic effect.
For another data set, the system named is MDCK. Put plainly: Cytotoxicity against MDCK cells. Conditions: Canis lupus familiaris.
Another data set concerns CCRF-CEM. The data set is described as follows: Cytostatic activity against human CEM cells after 72 hrs by Coulter counting.
Data set [2] is described as follows: Cytotoxicity against human CEM cells infected with HIV1. Type of data set: cell-based, CCRF-CEM. Conditions: CEM cells infected with HIV-1.
Data set [3] has as its system Human immunodeficiency virus 2. Put plainly: Antiviral activity against HIV2 ROD infected in human CEM cells assessed as inhibition of virus-induced syncytium formation by microscopy. The conditions noted are these: Human immunodeficiency virus 2, ISOLATE ROD, CCRF-CEM.
The test system of data set [4] is Felid alphaherpesvirus 1. Put plainly: Antiviral activity against Feline herpesvirus 1 infected in cat CRFK cells assessed as inhibition of virus induced cytopathicity. The conditions noted are these: Felid alphaherpesvirus 1, CRFK.
The test system of data set [5] is Human immunodeficiency virus 1. Put plainly: Antiviral activity against HIV1 3B infected in human CEM cells assessed as inhibition of virus-induced syncytium formation by microscopy. Conditions: Human immunodeficiency virus 1, 3B, CCRF-CEM.
Data set [6] is described as follows: Cytotoxicity against human CEM cells infected with HIV2. Type of data set: cell-based, CCRF-CEM.
For the next data set, the system named is HeLa. Put plainly: Cytostatic activity against human HeLa cells after 72 hrs by Coulter counting.
The next data set has as its system L1210. Put plainly: Cytostatic activity against mouse L1210 cells after 48 hrs by Coulter counting. The conditions noted are these: L1210, 48 h.
Data set [7] can be described thus: Inhibition of human PI4K3alpha expressed in Escherichia coli BL21 after 60 mins by ADP-GloTM Kinase Assay. A general note: ADP-Glo turns the ADP formed in a reaction into a luminescent signal.
The nature of data set [8]: Cytotoxicity against cat CRFK cells. Type of data set: cell-based, Felis catus.
A short description of data set [9]: Inhibition of human PI4K3beta expressed in Escherichia coli BL21 after 60 mins by ADP-GloTM Kinase Assay.
A short description of data set [10]: Cytotoxicity against african green monkey Vero cells. It is filed as cell-based. The conditions noted are these: chlorocebus sabaeus.
For data set [11], the system named is Influenza A virus. The data set is described as follows: Antiviral activity against influenza A virus H1N1 infected in MDCK cells assessed as inhibition of virus-induced cytopathic effect at 100 uM. It is filed as functional, organism-based. In general terms: Cytopathic effects are the visible damage that an infection or toxin causes in cultured cells.
The test system of data set [12] is Human immunodeficiency virus 1. The data set is described as follows: Antiviral activity against HIV1 3B infected in human CEM cells assessed as inhibition of virus-induced syncytium formation at 100 uM by microscopy. The conditions noted are these: CCRF-CEM. It is filed as functional, organism-based.
Data set [13] relates to Felid alphaherpesvirus 1. The data set is described as follows: Antiviral activity against Feline herpesvirus 1 infected in cat CRFK cells assessed as inhibition of virus induced cytopathicity at 100 uM. It is filed as functional, organism-based.
Data set [14] deals with Human immunodeficiency virus 2. Put plainly: Antiviral activity against HIV2 ROD infected in human CEM cells assessed as inhibition of virus-induced syncytium formation at 100 uM by microscopy. Type of data set: functional, organism-based. Conditions: ISOLATE ROD, CCRF-CEM.

Calls of active or inactive are those of the source. No cut-off for these calls is given here.

Broadly, the EC50 is the concentration needed to bring the measured effect to its halfway point. What is called IC50 is the concentration at which inhibition is half-maximal. The term CC50 denotes the concentration that lowers cell viability or growth by half. On to `Nc1ncnc2c1ncn2[C@@H]1C[C@@]2(CO)CC[C@@H]1C2`, for which the inhibition result in the data set with Coxsackievirus B4 was “inactive”. Moreover, the EC50 in the data set with Influenza A virus [1] was 179 µM; in the data set with MDCK, greater than 386 µg/mL; in data set [3] it was 231 µM; with Felid alphaherpesvirus 1 [4], 58 µM; in data set [5] it was 100 µM. Moreover, the IC50 in the data set with CCRF-CEM was greater than 386 µM; in the data set on HeLa it was 609 µM; in the data set on L1210, 408 µM; in data set [7], greater than 100 µM; in [9], greater than 100 µM. Also, the CC50 in data set [2], in [6] and in [8] was greater than 386 µM in each case.
On to `OC[C@]12CC[C@H](C1)[C@H](n1cnc3c(Cl)ncnc31)C2` (relative stereo), for which the EC50 in the data set with Coxsackievirus B4 was determined as 25 µM. The compound further returned a CC50 in data set [10] greater than 359 µM.
For the compound `Nc1nc(Cl)c2ncn([C@@H]3C[C@@]4(CO)CC[C@@H]3C4)c2n1` (relative stereo), the EC50 in the data set on Coxsackievirus B4 worked out at 31 µM. Besides, in [10], the CC50 was greater than 359 µM. Also, the figures for the IC50 in the data set on CCRF-CEM, with HeLa and in the data set on L1210 were 88 µM, greater than 340 µM and 139 µM, respectively.
Turning to `COC(=O)[C@H](C)NP(=O)(OC[C@]12CC[C@H](C1)[C@H](n1cnc3c(NC4CC4)ncnc31)C2)Oc1ccccc1` (relative stereo), the IC50 in the data set with CCRF-CEM is 78 µM; with HeLa it was 136 µM; in the data set with L1210, 129 µM.
Take `COC(=O)[C@H](C)NP(=O)(OC[C@]12CC[C@H](C1)[C@H](n1cnc3c(N)ncnc31)C2)Oc1ccccc1` (relative stereo): the inhibition result (in the data set with Influenza A virus [11]; in data set [12]; in the data set on Felid alphaherpesvirus 1 [13]; in data set [14]) was “inactive” throughout. Besides, the IC50 in the data set with CCRF-CEM is no less than 200 µM; in the data set on HeLa it was greater than 200 µM; with L1210 it was 160 µM.
In the case of `Nc1nc(N)c2ncn([C@@H]3C[C@@]4(CO)CC[C@@H]3C4)c2n1` (relative stereo), the figures for the IC50 in the data set on CCRF-CEM, in the data set with HeLa and with L1210 were 174 µM, 190 µM and 179 µM, respectively.
The like results for `Nc1nc(NC2CC2)c2ncn([C@@H]3C[C@@]4(CO)CC[C@@H]3C4)c2n1` (relative stereo) were, in that order, 124 µM, 101 µM and 146 µM.
`CN(C)c1ncnc2c1ncn2[C@@H]1C[C@@]2(CO)CC[C@@H]1C2` (relative stereo): in the data set with Coxsackievirus B4, the inhibition entry was “inactive”.
Still for that read-out and setting: to `OC[C@]12CC[C@H](C1)[C@H](n1cnc3c(=S)[nH]cnc31)C2` (relative stereo) belongs “inactive”; to `OC[C@]12CC[C@H](C1)[C@H](n1cnc3c(NC4CC4)ncnc31)C2` (relative stereo), “inactive”.
As to `O=c1[nH]cc(F)c(=O)[nH]1` [FLUOROURACIL], in the data set on HeLa, it took 2.6 µM to reach half-maximal inhibition (IC50).

For the origin of these results see ChEMBL document CHEMBL3351513, “Norbornane-based nucleoside and nucleotide analogues locked in North conformation” (Bioorg Med Chem, 2015).
